TGI and GI50 data for 13 compounds are collected here from PubChem BioAssay (NCI).

Each structure is given as a SMILES string.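 Following 48 hours of exposure in 96-well plates, responses at five concentrations were used to interpolate endpoints linearly. The concentration for 50% growth inhibition is given as GI50. TGI denotes the concentration required for complete inhibition of growth.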

Test systems include SNB-19 CNS; HCT-116 colon; SN12C renal; SF-295 CNS; U251 CNS; ACHN renal; OVCAR-8 ovarian; SF-268 CNS; CAKI-1 renal.
What all share (assay): DTP human tumour cell line panel, 48 h

What is called TGI is the concentration at which net growth stops. Read a high TGI as less potent growth arrest. Turning to `NC1=NN(c2ccccc2)C(=O)C1/C(=N\NC(=O)c1cc2ccccc2cc1O)C(=O)Nc1cccc(C(F)(F)F)c1` (centres undefined), the TGI with SNB-19 CNS is above 100 µM; in the assay with HCT-116 colon it was 94.9 µM; in the assay with SN12C renal, above 100 µM; in the assay with SF-295 CNS, above 100 µM; in the assay with U251 CNS, above 100 µM; in the assay on ACHN renal, above 100 µM. In addition, the TGI in the assay on OVCAR-8 ovarian and with SF-268 CNS was above 100 µM in each case.

Broadly, the GI50 is the concentration at which growth is held to half of that of the control. In the case of `CC(=O)[CH-]C(=O)c1ccccc1.CC(=O)[CH-]C(=O)c1ccccc1.CC[C@H](/C=C/C(C)[C@H]1CCC2[C@@H]3CC=C4C[C@@H]([O-])CC[C@]4(C)C3CC[C@@]21C)C(C)C.CC[O-].[Ti+4]` (some centres undefined), the GI50 in the assay on SNB-19 CNS was above 100 µM; with HCT-116 colon, above 100 µM; with SN12C renal, above 100 µM; in the assay on SF-295 CNS, above 100 µM; in the assay with U251 CNS it was above 100 µM; with ACHN renal, 16.2 µM. The GI50 in the assay on OVCAR-8 ovarian, with SF-268 CNS and with CAKI-1 renal was above 100 µM in each case. Further, the TGI in the assay on SNB-19 CNS, in the assay on HCT-116 colon, in the assay on SN12C renal, with SF-295 CNS, with U251 CNS and in the assay with ACHN renal was above 100 µM in each case. Also, the TGI in the assay on OVCAR-8 ovarian, in the assay on SF-268 CNS and in the assay on CAKI-1 renal was above 100 µM each time.

In the case of `CC(=O)[CH-]C(=O)c1ccccc1.CC(=O)[CH-]C(=O)c1ccccc1.CC1(C)OCC(C2OC3OC(C)(C)OC3C2[O-])O1.CC1(C)OCC(C2OC3OC(C)(C)OC3C2[O-])O1.[Ti+4]` (centres undefined), the GI50 was 14.4 µM with HCT-116 colon; 17.7 µM in the assay with SN12C renal; 13.8 µM in the assay on SF-295 CNS; 16.4 µM with ACHN renal; 13.9 µM in the assay with OVCAR-8 ovarian; 11.6 µM in the assay on SF-268 CNS. The GI50 in the assay with CAKI-1 renal is 29.9 µM. Further, the TGI in the assay with HCT-116 colon is 32.1 µM; in the assay on SN12C renal, 43.4 µM; with SF-295 CNS, 30.8 µM; in the assay with ACHN renal, 38.1 µM; in the assay on OVCAR-8 ovarian, 34.3 µM; in the assay on SF-268 CNS, 30 µM. The compound also showed a TGI with CAKI-1 renal of 79.7 µM.

With `COc1cccc(NC(=O)C(C)(C)C)c1SSc1c(NC(=O)C(C)(C)C)cccc1OC`, the TGI with SNB-19 CNS was above 100 µM; with HCT-116 colon, 42.8 µM; with SN12C renal, above 54.9 µM; in the assay on SF-295 CNS it was above 100 µM; in the assay on U251 CNS, 35.1 µM; in the assay on ACHN renal, above 100 µM. Also, the TGI in the assay on OVCAR-8 ovarian was 35.4 µM; with SF-268 CNS, 32.7 µM; in the assay on CAKI-1 renal, above 60.3 µM.

Turning to `COC(=O)C(CC(C)=O)CS(=O)(=O)CC(=O)C(=O)Nc1cccc([N+](=O)[O-])c1` (centres undefined), the concentration for total growth inhibition (TGI) in the assay with SNB-19 CNS, in the assay on HCT-116 colon, in the assay on SN12C renal, in the assay on U251 CNS, with ACHN renal and in the assay with OVCAR-8 ovarian was above 100 µM each time. Further, the concentration for total growth inhibition (TGI) in the assay with SF-268 CNS and in the assay on CAKI-1 renal was above 100 µM each time.

With `Cc1cc(=O)n2c3c(c4c(cc13)c(CO)cc(=O)n4C)OC2`, the TGI in the assay with SNB-19 CNS was above 100 µM; with HCT-116 colon, 15.8 µM; in the assay with SN12C renal it was above 100 µM; in the assay on SF-295 CNS, above 100 µM; in the assay on U251 CNS, above 100 µM; with ACHN renal, 63.5 µM. Also, the results for the TGI with OVCAR-8 ovarian, in the assay with SF-268 CNS and in the assay on CAKI-1 renal were 39.1 µM, 52.6 µM and above 100 µM, respectively.

`Cc1ccc(NC(=O)CC/C(CC(=O)C(C)(C)C)=N/NC(=O)C[N+](C)(C)C)cc1C`: the TGI with SNB-19 CNS, with HCT-116 colon, in the assay on SN12C renal, in the assay on SF-295 CNS, with U251 CNS and with ACHN renal was above 100 µM each time. Besides, the TGI in the assay on OVCAR-8 ovarian, with SF-268 CNS and in the assay on CAKI-1 renal was above 100 µM each time.

As to `Cn1cc(-c2csc(-c3cn(CCCCN4CCCCC4)c4ccc(F)cc34)n2)c2cccnc21`, in the assay on SF-295 CNS, the GI50 is 1.63 µM and the TGI is 3.05 µM. For the same compound, in the assay on SF-268 CNS, the GI50 was 1.68 µM and the TGI stood at 3.32 µM.

For `CSc1ccc(OCC2OC2O)cc1` (centres undefined), the TGI with SNB-19 CNS was above 100 µM; in the assay with HCT-116 colon it was 36.9 µM; in the assay on SN12C renal, above 100 µM; with SF-295 CNS it was above 100 µM; in the assay with U251 CNS it was above 100 µM; with ACHN renal, above 100 µM. Besides, the TGI is above 100 µM in the assay on OVCAR-8 ovarian and above 76.6 µM with CAKI-1 renal.

With `O=C(N/C(=C\c1ccc(/C=C(\NC(=O)c2ccccc2)c2nc3cc(Cl)ccc3[nH]2)cc1)c1nc2cc(Cl)ccc2[nH]1)c1ccccc1`, the TGI with SNB-19 CNS was above 100 µM; in the assay on HCT-116 colon it was 66.2 µM; with SN12C renal it was above 100 µM; with SF-295 CNS it was above 100 µM; in the assay on U251 CNS, above 100 µM; with ACHN renal, above 100 µM. Moreover, the TGI is above 100 µM in the assay with OVCAR-8 ovarian, 73.5 µM with SF-268 CNS and above 100 µM in the assay with CAKI-1 renal.

For `Cn1c(=O)c2ccc(-c3ccc(Br)cc3)nc2n(C)c1=O`, the TGI in the assay on SNB-19 CNS, in the assay with HCT-116 colon, in the assay with SF-295 CNS, with U251 CNS, in the assay on OVCAR-8 ovarian and with SF-268 CNS was above 100 µM throughout.

For `COC(=O)NN1C(C)=C(C(=O)OC)C2(C#N)C(C(=O)OC)=C(C)N(NC(=O)OC)C12N` (centres undefined), the TGI with SNB-19 CNS, in the assay on HCT-116 colon, in the assay on SN12C renal, with U251 CNS, in the assay with ACHN renal and in the assay with OVCAR-8 ovarian was above 100 µM each time. The TGI in the assay with SF-268 CNS and in the assay on CAKI-1 renal was above 100 µM in each case.

Turning to `Cc1cc(Cl)ccc1NC(=O)CCCC(=O)C1CCC/C1=N\NC(=O)CC#N` (centres undefined), the TGI in the assay on SNB-19 CNS, with HCT-116 colon, in the assay on SN12C renal, with SF-295 CNS, in the assay on U251 CNS and in the assay with ACHN renal was above 100 µM each time. The TGI with OVCAR-8 ovarian, in the assay with SF-268 CNS and in the assay with CAKI-1 renal was above 100 µM each time.
